These are literature values, as cited in US20260174720A1, “NERVONIC ACID COMPOSITION FOR IMPROVING MEMORY-BASED LEARNING FUNCTION AND A PREPARATION METHOD THEREOF” (Guangzhou Decade Nutrition Technology Co., Ltd., priority 2024, published 2026).

In the case of `CCCCCCCC/C=C\CCCCCCCCCCCCCC(=O)O` [Nervonic acid, cis-15-Tetracosenic Acid], the “solubility in alcohols such as methanol, ethanol” value is listed as “soluble in alcohols”. Further, the solubility in water result (room temperature) is “insoluble in water”.
